From US20110065675A1, “AZO DYE RELATED SMALL MOLECULE MODULATORS OF PROTEIN-PROTEIN INTERACTIONS” (University of Miami, priority 2008, published 2011)

Legend:
[1] = target: T1, mouse CD40/CD154 (mCD40:mCD154) (Mus musculus, UniProt P27548); assay: Murine CD40/CD154 binding inhibition assay; conditions: for IC50: cell-free binding, read-out: Mouse CD40/CD154 IC50
T1 construct: (FLAG-tagged) mCD154 (recombinant mouse CD40L, soluble, Alexis Biochemicals); purchased R&D Systems (mCD40/Fc); Alexis Biochemicals (mCD154)
T1 sequence (P27548 112-260 limits assumed): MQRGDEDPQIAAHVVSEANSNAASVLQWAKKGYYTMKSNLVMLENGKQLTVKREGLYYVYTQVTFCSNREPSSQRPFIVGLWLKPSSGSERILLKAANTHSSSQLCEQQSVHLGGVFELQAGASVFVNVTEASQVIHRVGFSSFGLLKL
Description: Compounds of interest were also tested in a murine (mouse) model similar to the human one with murine CD40 and CD154 replacing the corresponding human proteins. This serves as additional confirmation of the in vitro inhibitory potential of these compounds, and it was considered important because mouse models are likely to be used as the first in vivo tests. […] The experimental setup used was similar to the one described above, but using mCD40 (recombinant mouse CD40/TNFRSF5/Fc Chimera, soluble, R&D Systems) and (FLAG-tagged) mCD154 (recombinant mouse CD40L, soluble, Alexis Biochemicals). This time, however, a higher concentration of CD154 ligand had to be employed to obtain adequate signals, and after a number of calibration tests, mCD40 coating at 0.3125 μg/mL with mCD154 (mCD40L) at 1.1212 μg/mL range was selected to be used to screen the inhibiting activity of various compounds.
The experiments confirmed that the murine anti-CD154 monoclonal antibody (Taconic, MR1) was active in this system at the expected concentration (˜1 nM range), the human antibody was not, and vice versa, the human mAb was active in the human system, but not in the mouse system. The mouse system provided a similar range of activity with some (up to approximately five-fold) changes in activities compared to that seen in the human system (FIG. 2) (Table 1).

human CD19+ B cells = assay: Inhibition of CD154-induced human B-cell proliferation (BrdU ELISA); format: cell-based
Description: CD40 stimulation is an important proliferation signal for human B cell proliferation (Fecteau et al., “CD40 stimulation of human peripheral B lymphocytes: distinct response from naive and memory cells. J. Immunol., vol. 171, pp. 4621-4629, 2003; Wiesner et al., “Conditional immortalization of human B cells by CD40 ligation,” PLoS ONE, vol. 3, pp. e1464, 2008), and soluble CD154 (CD40 ligand) can dose-dependently induce the proliferation of human CD19^+ B cells as measured by standard proliferation .assays. […]
The detailed procedure is as follows: Frozen MPB CD19^+ B lymphocytes (approximately 10^6 cells per vial) were obtained from StemCells Technologies (Vancouver, Canada), thawed in a 37° C. water bath until no crystal piece was left, and the cell suspension was transferred to a 50 mL conical tube. […] This was repeated, the cells were counted, and the concentration of viable cells was adjusted to approximately 1×10^6 cells/mL. […] A colorimetric cell proliferation ELISA BrdU from Roche Applied Science (Indianapolis, Ind.) was used as immunoassay for quantification of cell proliferation based on the measurement of BrdU incorporation during DNA replication. […]

IC50 [1] [µM] | Mouse CD40/CD154 log IC50 ([1]; log of IC50, cell-free binding) | SMILES | IC50 (human CD19+ B cells; Homo sapiens, B-cell, CD19+ B cells, 48 h + 48 h BrdU) [µM] | Inhibition of CD154-induced B-cell proliferation (human CD19+ B cells)
4.5 | – | Cc1ccc(C(=O)Nc2ccc(S(=O)(=O)O)c3cc(S(=O)(=O)O)cc(S(=O)(=O)O)c23)cc1NC(=O)c1cccc(NC(=O)Nc2cccc(C(=O)Nc3cc(C(=O)Nc4ccc(S(=O)(=O)O)c5cc(S(=O)(=O)O)cc(S(=O)(=O)O)c45)ccc3C)c2)c1 [Suramin, reference compound] | 50 to 100 | –
> 2000 | >−3.0 | O=C([O-])C1=NN(c2ccc(S(=O)(=O)[O-])cc2)C(=O)C1N=Nc1ccc(S(=O)(=O)[O-])cc1.[Na+].[Na+].[Na+] (centres unmarked) [Tartrazine (FD&C yellow 5), Tartrazine, reference compound] | – | no proliferation inhibiting activity
